Experimental data as given in ChEMBL document CHEMBL5465560, “Selectivity Literature for EUbOPEN Chemogenomic Library” (2024).

Assays:
[1] = molecular target: T1, Megakaryocyte-associated tyrosine-protein kinase (Homo sapiens) (UniProt P42679); assay: Selectivity interaction (KinomeScan (DiscoverX)) EUB0000655a MATK; conditions: at 10 µM
T1 sequence (whole entry): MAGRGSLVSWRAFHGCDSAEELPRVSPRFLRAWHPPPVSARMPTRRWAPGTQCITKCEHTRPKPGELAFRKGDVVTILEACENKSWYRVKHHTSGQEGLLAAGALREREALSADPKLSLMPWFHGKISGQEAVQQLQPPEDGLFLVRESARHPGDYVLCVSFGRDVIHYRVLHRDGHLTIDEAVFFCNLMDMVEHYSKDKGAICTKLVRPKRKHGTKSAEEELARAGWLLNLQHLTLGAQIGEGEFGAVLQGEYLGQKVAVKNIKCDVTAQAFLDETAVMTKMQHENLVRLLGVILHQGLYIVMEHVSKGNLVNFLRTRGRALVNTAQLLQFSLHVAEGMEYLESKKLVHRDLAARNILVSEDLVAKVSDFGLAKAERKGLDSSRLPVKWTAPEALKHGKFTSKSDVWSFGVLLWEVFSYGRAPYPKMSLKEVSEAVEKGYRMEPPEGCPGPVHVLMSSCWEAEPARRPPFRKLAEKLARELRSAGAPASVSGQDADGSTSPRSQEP

[2] = molecular target: Tyrosine-protein kinase ABL1 (Homo sapiens, UniProt P00519); assay: Selectivity interaction (Kinase panel (DSF assay)) EUB0001559a ABL1
[3] = molecular target: Chromatin remodeling regulator CECR2 (Homo sapiens, UniProt Q9BXF3); assay: Selectivity interaction (Bromodomain panel (DSF asssay)) EUB0000270b CECR2
[4] = molecular target: T2, Dual specificity mitogen-activated protein kinase kinase 6 (Homo sapiens) (UniProt P52564); assay: Selectivity interaction (ActivX KiNativ screen (kinase selectivity in THP-1 cell lysates)) EUB0000639a MAP2K6; assay type: subcellular; conditions: lysate, at 0.01 µM
T2 sequence (whole entry): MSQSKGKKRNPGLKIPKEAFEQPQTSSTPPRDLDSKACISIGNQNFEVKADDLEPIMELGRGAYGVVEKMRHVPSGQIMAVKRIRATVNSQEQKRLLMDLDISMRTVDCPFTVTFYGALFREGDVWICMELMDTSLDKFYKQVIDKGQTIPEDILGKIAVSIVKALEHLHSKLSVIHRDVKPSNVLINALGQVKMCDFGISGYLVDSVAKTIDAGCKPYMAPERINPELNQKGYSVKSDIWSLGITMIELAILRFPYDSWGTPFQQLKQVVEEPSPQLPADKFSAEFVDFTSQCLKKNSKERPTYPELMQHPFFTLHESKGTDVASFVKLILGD

[5] = molecular target: Serine/threonine-protein kinase SIK3 (Homo sapiens) (UniProt Q9Y2K2); assay: Selectivity interaction (KinomeScan (DiscoverX)) EUB0000695a SIK3; conditions: at 100 nM
[6] = molecular target: Casein kinase I isoform alpha (Homo sapiens, UniProt P48729); assay: Selectivity interaction (KinomeScan (DiscoverX)) EUB0000595a CSNK1A1; conditions: at 10 µM
[7] = molecular target: T3, Ephrin type-A receptor 6 (Homo sapiens) (UniProt Q9UF33); assay: Selectivity interaction (KinomeScan (DiscoverX)) EUB0000595a EPHA6; conditions: at 10 µM
T3 sequence (whole entry): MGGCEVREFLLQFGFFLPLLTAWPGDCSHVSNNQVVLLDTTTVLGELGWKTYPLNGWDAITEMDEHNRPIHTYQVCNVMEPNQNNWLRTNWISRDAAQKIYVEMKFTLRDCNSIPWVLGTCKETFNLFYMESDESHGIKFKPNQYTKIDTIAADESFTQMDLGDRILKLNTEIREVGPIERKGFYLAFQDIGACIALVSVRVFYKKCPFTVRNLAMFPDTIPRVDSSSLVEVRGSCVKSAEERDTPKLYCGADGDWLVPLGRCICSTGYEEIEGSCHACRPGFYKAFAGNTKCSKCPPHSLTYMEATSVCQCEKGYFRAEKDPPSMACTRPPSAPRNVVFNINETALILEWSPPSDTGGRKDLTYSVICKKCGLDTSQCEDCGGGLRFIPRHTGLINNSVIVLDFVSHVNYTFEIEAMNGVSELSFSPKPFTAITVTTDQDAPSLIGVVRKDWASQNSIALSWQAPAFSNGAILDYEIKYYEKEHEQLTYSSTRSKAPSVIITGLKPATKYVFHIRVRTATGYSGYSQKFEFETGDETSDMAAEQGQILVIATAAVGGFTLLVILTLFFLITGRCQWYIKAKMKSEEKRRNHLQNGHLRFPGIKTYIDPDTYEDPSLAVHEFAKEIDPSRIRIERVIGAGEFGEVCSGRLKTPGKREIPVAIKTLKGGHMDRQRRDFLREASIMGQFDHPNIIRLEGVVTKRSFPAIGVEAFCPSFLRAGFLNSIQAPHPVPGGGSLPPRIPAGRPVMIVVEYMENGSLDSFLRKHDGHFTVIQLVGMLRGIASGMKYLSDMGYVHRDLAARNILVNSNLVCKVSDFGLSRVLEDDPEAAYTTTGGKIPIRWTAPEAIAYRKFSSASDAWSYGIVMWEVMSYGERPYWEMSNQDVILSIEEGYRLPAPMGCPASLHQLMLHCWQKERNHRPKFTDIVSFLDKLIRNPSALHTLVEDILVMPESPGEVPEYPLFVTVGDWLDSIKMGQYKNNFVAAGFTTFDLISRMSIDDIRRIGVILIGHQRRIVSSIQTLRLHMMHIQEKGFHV

SRSF protein kinase 1 = SRSF protein kinase 1 (Homo sapiens, UniProt Q96SB4); assay: Selectivity interaction (KinomeScan (DiscoverX)) EUB0000618a SRPK1; conditions: at 10 µM
[8] = molecular target: Serine/threonine-protein kinase 32C (Homo sapiens) (UniProt Q86UX6); assay: Selectivity interaction (KinomeScan (DiscoverX)) EUB0000618a STK32C; conditions: at 10 µM
[9] = molecular target: T4, Serine/threonine-protein kinase NLK (Homo sapiens) (UniProt Q9UBE8); assay: Selectivity interaction (KinomeScan (DiscoverX)) EUB0001619a NLK; conditions: at 1 µM
T4 sequence (whole entry): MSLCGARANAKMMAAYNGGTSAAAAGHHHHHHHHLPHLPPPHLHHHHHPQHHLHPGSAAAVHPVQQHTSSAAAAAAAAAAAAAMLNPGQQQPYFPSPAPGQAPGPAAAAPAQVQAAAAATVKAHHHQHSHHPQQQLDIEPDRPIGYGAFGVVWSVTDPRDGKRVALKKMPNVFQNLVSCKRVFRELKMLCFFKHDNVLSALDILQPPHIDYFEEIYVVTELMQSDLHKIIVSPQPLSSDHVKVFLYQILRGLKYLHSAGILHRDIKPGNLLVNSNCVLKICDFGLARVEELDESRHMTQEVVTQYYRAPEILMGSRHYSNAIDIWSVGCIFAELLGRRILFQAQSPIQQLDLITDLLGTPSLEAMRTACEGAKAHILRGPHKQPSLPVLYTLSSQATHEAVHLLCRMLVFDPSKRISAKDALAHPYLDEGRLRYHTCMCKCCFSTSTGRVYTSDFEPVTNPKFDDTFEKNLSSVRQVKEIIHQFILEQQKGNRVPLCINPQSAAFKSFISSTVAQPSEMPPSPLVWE

Chromatin remodeling regulator CECR2, sequence (Q9BXF3 whole entry, looked up): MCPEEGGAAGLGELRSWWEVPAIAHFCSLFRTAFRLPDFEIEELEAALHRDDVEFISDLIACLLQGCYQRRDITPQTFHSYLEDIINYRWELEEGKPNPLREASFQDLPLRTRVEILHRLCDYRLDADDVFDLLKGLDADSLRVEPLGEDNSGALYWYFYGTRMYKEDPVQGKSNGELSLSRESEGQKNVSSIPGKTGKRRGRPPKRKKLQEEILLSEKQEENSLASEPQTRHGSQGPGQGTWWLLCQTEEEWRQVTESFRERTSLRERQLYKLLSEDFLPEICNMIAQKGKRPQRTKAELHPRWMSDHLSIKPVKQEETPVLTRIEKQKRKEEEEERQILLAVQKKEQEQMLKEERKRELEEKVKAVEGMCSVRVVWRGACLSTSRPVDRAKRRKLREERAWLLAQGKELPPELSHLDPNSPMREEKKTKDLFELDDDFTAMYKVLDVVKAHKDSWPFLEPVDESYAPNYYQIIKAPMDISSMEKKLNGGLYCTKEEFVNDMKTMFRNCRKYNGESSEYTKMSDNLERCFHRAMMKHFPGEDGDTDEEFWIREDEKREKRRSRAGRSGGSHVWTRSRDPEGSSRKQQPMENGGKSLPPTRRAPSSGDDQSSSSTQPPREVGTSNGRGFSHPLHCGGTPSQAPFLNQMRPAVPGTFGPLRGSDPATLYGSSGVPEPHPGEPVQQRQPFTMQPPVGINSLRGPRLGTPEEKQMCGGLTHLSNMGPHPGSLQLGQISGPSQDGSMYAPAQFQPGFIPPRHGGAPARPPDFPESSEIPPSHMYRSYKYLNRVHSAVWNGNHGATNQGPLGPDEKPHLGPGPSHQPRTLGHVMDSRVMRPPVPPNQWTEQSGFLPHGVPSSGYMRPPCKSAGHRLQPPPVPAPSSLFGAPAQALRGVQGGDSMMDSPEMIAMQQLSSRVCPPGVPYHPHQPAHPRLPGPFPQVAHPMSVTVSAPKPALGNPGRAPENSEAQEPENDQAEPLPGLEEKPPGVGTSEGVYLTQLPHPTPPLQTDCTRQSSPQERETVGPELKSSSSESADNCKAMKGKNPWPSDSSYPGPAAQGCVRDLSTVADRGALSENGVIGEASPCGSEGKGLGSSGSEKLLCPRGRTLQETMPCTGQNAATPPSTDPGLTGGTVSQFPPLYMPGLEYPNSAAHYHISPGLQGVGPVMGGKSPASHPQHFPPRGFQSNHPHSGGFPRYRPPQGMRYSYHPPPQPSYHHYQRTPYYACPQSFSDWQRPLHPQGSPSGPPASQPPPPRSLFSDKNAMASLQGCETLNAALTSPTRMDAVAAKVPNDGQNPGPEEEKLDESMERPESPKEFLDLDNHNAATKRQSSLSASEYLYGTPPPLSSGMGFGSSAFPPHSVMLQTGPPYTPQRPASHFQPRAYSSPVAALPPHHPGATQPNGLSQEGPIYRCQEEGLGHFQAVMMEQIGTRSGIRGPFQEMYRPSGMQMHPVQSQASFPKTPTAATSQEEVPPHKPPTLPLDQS
Serine/threonine-protein kinase SIK3 (Homo sapiens), sequence (Q9Y2K2 whole entry, looked up, canonical isoform): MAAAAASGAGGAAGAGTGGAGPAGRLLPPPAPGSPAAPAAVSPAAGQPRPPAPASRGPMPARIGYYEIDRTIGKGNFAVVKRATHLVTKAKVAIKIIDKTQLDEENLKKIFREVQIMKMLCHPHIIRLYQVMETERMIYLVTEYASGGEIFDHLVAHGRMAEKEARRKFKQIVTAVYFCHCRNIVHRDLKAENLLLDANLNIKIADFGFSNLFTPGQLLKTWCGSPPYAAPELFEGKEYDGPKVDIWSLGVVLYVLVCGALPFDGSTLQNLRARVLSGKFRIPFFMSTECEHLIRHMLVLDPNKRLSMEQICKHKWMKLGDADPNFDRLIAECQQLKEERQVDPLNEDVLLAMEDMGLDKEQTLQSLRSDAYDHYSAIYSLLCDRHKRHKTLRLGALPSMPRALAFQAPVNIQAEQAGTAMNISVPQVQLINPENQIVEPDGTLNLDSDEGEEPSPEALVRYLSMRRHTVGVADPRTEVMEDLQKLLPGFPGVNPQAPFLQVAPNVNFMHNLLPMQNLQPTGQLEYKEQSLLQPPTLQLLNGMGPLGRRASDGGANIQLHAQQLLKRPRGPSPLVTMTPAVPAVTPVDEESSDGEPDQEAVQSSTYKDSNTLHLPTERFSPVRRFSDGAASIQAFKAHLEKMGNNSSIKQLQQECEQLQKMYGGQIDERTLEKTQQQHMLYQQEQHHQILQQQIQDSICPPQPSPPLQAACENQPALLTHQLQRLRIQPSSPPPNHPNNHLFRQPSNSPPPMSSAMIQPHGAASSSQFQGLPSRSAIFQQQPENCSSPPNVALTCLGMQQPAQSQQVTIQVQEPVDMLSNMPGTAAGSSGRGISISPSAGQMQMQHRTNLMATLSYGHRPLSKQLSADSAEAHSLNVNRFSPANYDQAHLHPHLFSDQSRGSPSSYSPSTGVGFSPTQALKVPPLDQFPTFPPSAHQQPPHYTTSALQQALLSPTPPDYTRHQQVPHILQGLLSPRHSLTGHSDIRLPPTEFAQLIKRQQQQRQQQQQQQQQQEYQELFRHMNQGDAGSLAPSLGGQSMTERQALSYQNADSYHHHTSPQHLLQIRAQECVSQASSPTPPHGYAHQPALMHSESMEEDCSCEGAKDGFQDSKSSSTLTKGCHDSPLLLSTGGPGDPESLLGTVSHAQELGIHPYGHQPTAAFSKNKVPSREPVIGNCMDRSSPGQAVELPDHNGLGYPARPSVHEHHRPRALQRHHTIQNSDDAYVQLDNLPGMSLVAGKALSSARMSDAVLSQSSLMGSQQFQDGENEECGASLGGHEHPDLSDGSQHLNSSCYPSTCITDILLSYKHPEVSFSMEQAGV
Casein kinase I isoform alpha, sequence (P48729 2-337 limits assumed): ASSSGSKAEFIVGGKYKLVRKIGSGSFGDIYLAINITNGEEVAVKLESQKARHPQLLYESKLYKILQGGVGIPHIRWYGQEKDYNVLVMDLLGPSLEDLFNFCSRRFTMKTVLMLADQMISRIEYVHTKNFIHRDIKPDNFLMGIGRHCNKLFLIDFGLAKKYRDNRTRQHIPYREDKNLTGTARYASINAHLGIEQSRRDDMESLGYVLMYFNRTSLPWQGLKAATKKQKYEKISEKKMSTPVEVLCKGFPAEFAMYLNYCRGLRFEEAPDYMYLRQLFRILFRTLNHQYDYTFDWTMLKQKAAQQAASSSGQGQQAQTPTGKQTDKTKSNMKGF
SRSF protein kinase 1, sequence (Q96SB4 whole entry): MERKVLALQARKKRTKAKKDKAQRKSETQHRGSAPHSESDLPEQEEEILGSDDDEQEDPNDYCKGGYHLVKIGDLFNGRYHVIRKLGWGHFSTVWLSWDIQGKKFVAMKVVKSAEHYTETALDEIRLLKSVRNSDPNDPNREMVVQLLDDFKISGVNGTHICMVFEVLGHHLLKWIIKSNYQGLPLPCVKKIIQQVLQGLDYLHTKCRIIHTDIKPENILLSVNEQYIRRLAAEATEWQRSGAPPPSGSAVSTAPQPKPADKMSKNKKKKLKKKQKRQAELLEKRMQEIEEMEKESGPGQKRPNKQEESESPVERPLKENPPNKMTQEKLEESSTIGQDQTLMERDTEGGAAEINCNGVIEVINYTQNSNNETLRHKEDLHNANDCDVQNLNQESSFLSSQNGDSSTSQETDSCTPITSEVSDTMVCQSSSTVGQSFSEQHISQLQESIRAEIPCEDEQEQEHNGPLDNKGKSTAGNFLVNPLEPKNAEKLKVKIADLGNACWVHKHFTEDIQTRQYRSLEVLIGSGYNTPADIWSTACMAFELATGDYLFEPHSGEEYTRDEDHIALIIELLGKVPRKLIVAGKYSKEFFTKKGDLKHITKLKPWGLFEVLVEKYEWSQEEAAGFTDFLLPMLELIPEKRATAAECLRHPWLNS
Serine/threonine-protein kinase 32C (Homo sapiens), sequence (Q86UX6 whole entry): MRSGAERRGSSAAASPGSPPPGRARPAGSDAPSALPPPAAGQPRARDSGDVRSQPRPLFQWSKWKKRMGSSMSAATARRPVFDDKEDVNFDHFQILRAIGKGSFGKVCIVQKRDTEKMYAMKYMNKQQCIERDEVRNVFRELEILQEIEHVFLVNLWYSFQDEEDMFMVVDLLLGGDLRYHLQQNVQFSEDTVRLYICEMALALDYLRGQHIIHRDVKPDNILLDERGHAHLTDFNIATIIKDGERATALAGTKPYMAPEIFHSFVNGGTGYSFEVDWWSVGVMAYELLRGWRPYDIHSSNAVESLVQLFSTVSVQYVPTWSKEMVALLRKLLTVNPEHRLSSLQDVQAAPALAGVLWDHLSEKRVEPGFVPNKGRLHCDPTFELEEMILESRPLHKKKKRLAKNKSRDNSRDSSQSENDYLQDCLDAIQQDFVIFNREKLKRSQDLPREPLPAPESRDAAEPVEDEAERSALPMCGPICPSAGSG

CN(C)CCOc1ccc(-c2nc(-c3ccncc3)c(-c3ccc4c(c3)CC/C4=N\O)[nH]2)cc1
% of control [1]: 100%

CN(C(=O)c1cnn2cccnc12)c1cc2c(cc1N1CCOCC1)C(=O)N(C[C@@H](F)C(C)(C)O)C2
dTM [2]: 0.6 K

Cc1cc(CN)cc(C)c1-c1ncn(C)c1-c1cncn1C
dTM [3]: -0.68 K

CC[C@@H]1[C@H](F)C(=O)N[C@@H]1COc1nccc2cc(C(N)=O)c(OC)cc12 [ZIMLOVISERTIB]
% of inhibition [4]: 7.4%

Cc1cc(F)c(C(=O)Nc2cccc(-c3nncn3C(C)C)n2)cc1-n1cnc(C2CC2)c1
% of control [5]: 100%

COCC(=O)NC/C=C/c1ccc2ncnc(Nc3ccc(Oc4ccc(C)nc4)c(C)c3)c2c1 [CP-724714]
% of control [6]: 100%
% of control [7]: 96%

O[C@H]1CC[C@H](Nc2ncc3nc(Nc4c(F)cc(F)cc4F)n([C@H]4CCOC4)c3n2)CC1
% of control (SRSF protein kinase 1): 100%
% of control [8]: 100%

N#Cc1cccc(-c2c[nH]c3ncnc(N4CCOCC4)c23)c1
% of control [9]: 85%
